The record followed here is patent US7745646B2, “Bicyclic heteroaryl inhibitors of PDE4” (Kalypsys, Inc., priority 2006, dated 2010).

The target in this test is T1, PDE4B (Homo sapiens, UniProt Q07343).
T1 construct: hex-histidine (His6) (N); made in house
Put plainly: Novel coupled PDE/AK bioluminescent assay, PDE4B inhibition. Type of test: biochemical. The settings on record: PDE4B catalytic domain.

T1 sequence (Q07343 330-659 limits assumed, species assumed): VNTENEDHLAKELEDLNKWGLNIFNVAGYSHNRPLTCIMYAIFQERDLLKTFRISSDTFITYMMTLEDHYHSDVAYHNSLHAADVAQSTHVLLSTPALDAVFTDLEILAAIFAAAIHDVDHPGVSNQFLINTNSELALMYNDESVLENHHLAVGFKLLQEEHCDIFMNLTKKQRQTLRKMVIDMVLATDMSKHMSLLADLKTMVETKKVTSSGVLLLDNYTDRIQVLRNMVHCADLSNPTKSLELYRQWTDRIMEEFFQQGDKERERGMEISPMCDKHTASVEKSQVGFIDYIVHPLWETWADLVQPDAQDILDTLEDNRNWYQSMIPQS
Description: We developed a novel coupled PDE/AK bioluminescent high-throughput assay to measure the activity of phosphodiesterases. In the PDE/AK assay, the AMP produced from the hydrolysis of cAMP by phosphodiesterase is converted to adenosine diphosphate (ADP) by the phosphotransferase activity of adenylate kinase (also known as ADK or myokinase). Adenylate kinase will catalyze the conversion of 1 mole of AMP and 1 mole of ATP into 2 moles of ADP. Thus the conversion of AMP to ADP will result in the subsequent loss of ATP. The decrease in ATP concentration can be monitored as light output using luciferase in a reaction that requires ATP to produce light. The PDE/AK assay uses luciferase, which catalyzes the production of light from ATP present in the reaction mix. The amount of emitted light is inversely proportional to the level of AMP present in the reaction. Test compounds are incubated with the phosphodiesterases and phosphodiesterase inhibitors will decrease the rate of cAMP hydrolysis and decrease the subsequent production of AMP.
A novel coupled PDE/AK assay was utilized to measure the inhibitory activity of compounds on PDE isoforms. The catalytic domain of PDE4B was fused to an amino-terminus hex-histidine affinity tag and purified. PDE4B enzyme was incubated with compounds for 10 minutes. Cyclic AMP substrate, ATP and adenylate kinase were then added to the PDE enzyme mix and incubated for 45 minutes at room temperature. A commercial ATP detection assay, Perkin Elmer's easyLite ATP detection reagent, was then added to measure the relative amount of ATP present in the reaction. After 10 minute incubation, the luminescent signal was quantitated with either the Perkin Elmer Viewlux or Molecular Devices Acquest or Analyst.

The compound `COc1ccc2c(Nc3c(Cl)cccc3Cl)cc(=O)oc2c1OC1CCCC1` [Example 1, 8-(Cyclopentyloxy)-4-(2,6-dichlorophenylamino)-7-methoxy-2H-chromen-2-one] came in with an IC50 of less than 1000 nM.

Regarding `COc1ccc2c(Cc3c(Cl)cncc3Cl)cc(=O)oc2c1OC1CCCC1` [Example 2, 8-(Cyclopentyloxy)-4-[(3,5-dichloropyridin-4-yl)methyl]-7-methoxy-2H-chromen-2-one], the IC50 was less than 1000 nM.

For `COc1ccc2c(Nc3c(Cl)cncc3Cl)c(O)c(=O)oc2c1OC1CCCC1` [Example 4, 8-(Cyclopentyloxy)-4-(3,5-dichloropyridin-4-ylamino)-3-hydroxy-7-methoxy-2H-chromen-2-one], the IC50 is greater than 1000 nM.

For the compound `CCc1c(Nc2c(Cl)cncc2Cl)c2ccc(OC)c(OCC3CC3)c2oc1=O` [Example 6, 8-(Cyclopropylmethoxy)-4-(3,5-dichloropyridin-4-ylamino)-3-ethyl-7-methoxy-2H-chromen-2-one], the IC50 was less than 1000 nM.

Take `COc1ccc2c(NCC(=O)O)cc(=O)oc2c1OC1CCCC1` [Example 7, 2-(8-(Cyclopentyloxy)-7-methoxy-2-oxo-2H-chromen-4-ylamino)acetic acid]: the IC50 is greater than 1000 nM.

Regarding `CCOC(=O)CNc1cc(=O)oc2c(OC3CCCC3)c(OC)ccc12` [Example 8, Ethyl 2-(8-(cyclopentyloxy)-7-methoxy-2-oxo-2H-chromen-4-ylamino)acetate], the IC50 is greater than 1000 nM.

As to `COc1ccc2c(NCC(N)=O)cc(=O)oc2c1OC1CCCC1` [Example 9, 2-(8-(Cyclopentyloxy)-7-methoxy-2-oxo-2H-chromen-4-ylamino)acetamide], the IC50 was greater than 1000 nM.

On to `COc1ccc2c(NCC(=O)NO)cc(=O)oc2c1OC1CCCC1` [Example 10, 2-(8-(Cyclopentyloxy)-7-methoxy-2-oxo-2H-chromen-4-ylamino)-N-hydroxyacetamide], for which the concentration for half-maximal inhibition (IC50) was less than 1000 nM.

`COc1ccc2c(Nc3c(Cl)cncc3Br)cc(=O)oc2c1OC1CCCC1` [Example 11, 4-(3-Bromo-5-chloropyridin-4-ylamino)-8-(cyclopentyloxy)-7-methoxy-2H-chromen-2-one] displayed an IC50 of less than 1000 nM.

Take `COc1ccc2c(Nc3c(C)cncc3C)cc(=O)oc2c1OC1CCCC1` [Example 12, 8-(Cyclopentyloxy)-4-(3,5-dimethylpyridin-4-ylamino)-7-methoxy-2H-chromen-2-one]: the IC50 was less than 1000 nM.

Compound `COc1ccc2c(Nc3c(Cl)cncc3Cl)c(C)c(=O)oc2c1OC1CCCC1` [Example 13, 8-(Cyclopentyloxy)-4-(3,5-dichloropyridin-4-ylamino)-7-methoxy-3-methyl-2H-chromen-2-one] yielded an IC50 of less than 1000 nM.

`COc1ccc2c(Nc3c(Cl)cncc3Cl)c(F)c(=O)oc2c1OC1CCCC1` [Example 14, 8-(Cyclopentyloxy)-4-(3,5-dichloropyridin-4-ylamino)-3-fluoro-7-methoxy-2H-chromen-2-one] came in with an IC50 of less than 1000 nM.

Take `C=C(OCC)c1cncc(Cl)c1Nc1cc(=O)oc2c(OC3CCCC3)c(OC)ccc12` [Example 15, 4-(3-Chloro-5-(1-ethoxyvinyl)pyridin-4-ylamino)-8-(cyclopentyloxy)-7-methoxy-2H-chromen-2-one]: the half-maximal inhibitory concentration (IC50) was less than 1000 nM.

With `COc1ccc2c(Nc3c(Cl)ccc(C)c3Cl)cc(=O)oc2c1OC1CCCC1` [Example 16, 8-(Cyclopentyloxy)-4-(2,6-dichloro-3-methylphenylamino)-7-methoxy-2H-chromen-2-one], the IC50 was greater than 1000 nM.

In the case of `COc1ccc2c(Nc3c(Cl)cccc3C(F)(F)F)cc(=O)oc2c1OC1CCCC1` [Example 17, 4-(2-Chloro-6-(trifluoromethyl)phenylamino)-8-(cyclopentyloxy)-7-methoxy-2H-chromen-2-one], the IC50 is less than 1000 nM.

The compound `COc1ccc2c(Nc3c(C)cccc3Cl)cc(=O)oc2c1OC1CCCC1` [Example 18, 4-(2-Chloro-6-methylphenylamino)-8-(cyclopentyloxy)-7-methoxy-2H-chromen-2-one] showed an IC50 of less than 1000 nM.

The compound `COc1ccc2c(Nc3ccccc3Cl)cc(=O)oc2c1OC1CCCC1` [Example 19, 4-(2-Chlorophenylamino)-8-(cyclopentyloxy)-7-methoxy-2H-chromen-2-one] yielded an IC50 of less than 1000 nM.

`COC(=O)c1cccc(Cl)c1Nc1cc(=O)oc2c(OC3CCCC3)c(OC)ccc12` [Example 20, Methyl 3-chloro-2-(8-(cyclopentyloxy)-7-methoxy-2-oxo-2H-chromen-4-ylamino)benzoate] came in with an IC50 greater than 1000 nM.

With `COc1ccc2c(Nc3c(Cl)cncc3Cl)cc(=O)oc2c1OC(C)C` [Example 21, 4-(3,5-Dichloropyridin-4-ylamino)-8-isopropoxy-7-methoxy-2H-chromen-2-one], the IC50 was less than 1000 nM.

`COc1ccc2c(Nc3c(Cl)cncc3C(=O)O)cc(=O)oc2c1OC1CCCC1` [Example 22, 5-Chloro-4-(8-(cyclopentyloxy)-7-methoxy-2-oxo-2H-chromen-4-ylamino)nicotinic acid] came in with a 50% inhibitory concentration (IC50) greater than 1000 nM.

Take `COc1ccc2c(Nc3c(Cl)cncc3Cl)cc(=O)oc2c1OCC(C)C` [Example 23, 4-(3,5-Dichloropyridin-4-ylamino)-8-isobutoxy-7-methoxy-2H-chromen-2-one]: the IC50 was less than 1000 nM.

In turn, `COc1ccc2c(Nc3ccccc3Cl)cc(=O)oc2c1OCC1CC1` [Example 24, 4-(2-Chlorophenylamino)-8-(cyclopropylmethoxy)-7-methoxy-2H-chromen-2-one] gave an IC50 of less than 1000 nM.

In the case of `COc1ccc2c(Nc3c(Cl)cncc3Cl)cc(=O)oc2c1OCCCCBr` [Example 25, 8-(4-Bromobutoxy)-4-(3,5-dichloropyridin-4-ylamino)-7-methoxy-2H-chromen-2-one], the IC50 was less than 1000 nM.

On to `COc1ccc2c(Nc3c(Cl)cncc3Cl)cc(=O)oc2c1OCc1ccccc1` [Example 26, 8-(Benzyloxy)-4-(3,5-dichloropyridin-4-ylamino)-7-methoxy-2H-chromen-2-one], for which the IC50 was less than 1000 nM.

With `COc1ccc2c(Nc3c(Cl)cncc3Cl)cc(=O)oc2c1OCCCCN(C)C` [Example 27, 4-(3,5-Dichloropyridin-4-ylamino)-8-(4-(dimethylamino)butoxy)-7-methoxy-2H-chromen-2-one], the IC50 is less than 1000 nM.

Consider `COc1ccc2c(Nc3c(Cl)cncc3Cl)cc(=O)oc2c1OCCCCCBr` [Example 28, 8-(5-Bromopentyloxy)-4-(3,5-dichloropyridin-4-ylamino)-7-methoxy-2H-chromen-2-one], for which the IC50 was less than 1000 nM.

`COc1ccc2c(Nc3c(Cl)cncc3Cl)cc(=O)oc2c1O` [Example 29, 4-(3,5-Dichloropyridin-4-ylamino)-8-hydroxy-7-methoxy-2H-chromen-2-one] yielded an IC50 of less than 1000 nM.

In the case of `COc1ccc2c(Nc3c(Cl)cncc3Cl)cc(=O)oc2c1OCCCBr` [Example 30, 8-(3-Bromopropoxy)-4-(3,5-dichloropyridin-4-ylamino)-7-methoxy-2H-chromen-2-one], the IC50 was less than 1000 nM.

Regarding `COc1ccc2c(Nc3c(Cl)cncc3Cl)cc(=O)oc2c1OCCCCCN(C)C` [Example 31, 4-(3,5-Dichloropyridin-4-ylamino)-8-(5-(dimethylamino)pentyloxy)-7-methoxy-2H-chromen-2-one], the IC50 is less than 1000 nM.

`COc1ccc2c(Nc3c(Cl)cncc3Cl)cc(=O)oc2c1OCCCN(C)C` [Example 32, 4-(3,5-Dichloropyridin-4-ylamino)-8-(3-(dimethylamino)propoxy)-7-methoxy-2H-chromen-2-one] displayed an IC50 of less than 1000 nM.

Regarding `COc1ccc2c(Nc3c(Cl)cncc3Cl)cc(=O)oc2c1OCc1ccccc1[N+](=O)[O-]` [Example 33, 4-(3,5-Dichloropyridin-4-ylamino)-7-methoxy-8-(2-nitrobenzyloxy)-2H-chromen-2-one], the IC50 is less than 1000 nM.

`COc1ccc2c(Nc3c(Cl)cncc3Cl)cc(=O)oc2c1OCc1cccc([N+](=O)[O-])c1` [Example 34, 4-(3,5-Dichloropyridin-4-ylamino)-7-methoxy-8-(3-nitrobenzyloxy)-2H-chromen-2-one] had an IC50 of less than 1000 nM.

Regarding `COc1ccc2c(Nc3c(Cl)cncc3Cl)cc(=O)oc2c1OCc1ccc([N+](=O)[O-])cc1` [Example 35, 4-(3,5-Dichloropyridin-4-ylamino)-7-methoxy-8-(4-nitrobenzyloxy)-2H-chromen-2-one], the IC50 was less than 1000 nM.

With `CCOC(=O)CCCOc1c(OC)ccc2c(Nc3c(Cl)cncc3Cl)cc(=O)oc12` [Example 36, Ethyl 4-(4-(3,5-dichloropyridin-4-ylamino)-7-methoxy-2-oxo-2H-chromen-8-yloxy)butanoate], the IC50 is less than 1000 nM.

With `CCOC(=O)CCCCOc1c(OC)ccc2c(Nc3c(Cl)cncc3Cl)cc(=O)oc12` [Example 37, Ethyl 5-(4-(3,5-dichloropyridin-4-ylamino)-7-methoxy-2-oxo-2H-chromen-8-yloxy)pentanoate], the IC50 was less than 1000 nM.

In turn, `CCOC(=O)CCCCCOc1c(OC)ccc2c(Nc3c(Cl)cncc3Cl)cc(=O)oc12` [Example 38, Ethyl 6-(4-(3,5-dichloropyridin-4-ylamino)-7-methoxy-2-oxo-2H-chromen-8-yloxy)hexanoate] gave an IC50 of less than 1000 nM.

On to `COc1ccc2c(N[C@H]3CC[C@@H](C(=O)O)CC3)cc(=O)oc2c1OC1CCCC1` [Example 39, cis-4-(8-(Cyclopentyloxy)-7-methoxy-2-oxo-2H-chromen-4-ylamino)cyclohexanecarboxylic acid], for which the IC50 was greater than 1000 nM.

The compound `COc1ccc2c(Nc3c(Cl)cncc3Cl)cc(=O)oc2c1OCC1CCCC1` [Example 40, 8-(Cyclopentylmethoxy)-4-(3,5-dichloropyridin-4-ylamino)-7-methoxy-2H-chromen-2-one] yielded an IC50 of less than 1000 nM.

For the compound `COc1ccc2c(Nc3c(Cl)cncc3Cl)cc(=O)oc2c1OCCc1ccccc1` [Example 41, 4-(3,5-Dichloropyridin-4-ylamino)-7-methoxy-8-phenethoxy-2H-chromen-2-one], the IC50 is less than 1000 nM.

With `COc1ccc2c(Nc3c(Cl)cncc3Cl)cc(=O)oc2c1OCCCC(=O)O` [Example 42, 4-(4-(3,5-Dichloropyridin-4-ylamino)-7-methoxy-2-oxo-2H-chromen-8-yloxy)butanoic acid], the IC50 is less than 1000 nM.
